Legend:
HEK-293 cells = experiment: Cytotoxicity assessment, Cell Titer-Glo, 72 hours; type: cell-based, human; conditions: CTG viability at 72 hrs
Description: Immunofluorescence‐based assays have been previously used to analyse global changes in H3K4me3 as a measure of KDM5 activity, but the global change can be affected by other factors such as cytotoxicity.17 We therefore employed chromatin immunoprecipitation and sequencing (ChIP‐seq) as a more accurate method to quantify the H3K4me3 level at transcriptional start sites (TSS) as a read‐out for inhibition of KDM5 activity. […] Compounds 4, 7 and 9 were selected for H3K4me3 ChIP‐seq experiments and quantification.18 […]
Covalent binding RapidFire
Recombinant KDM5B (MW = 55152 Da) was incubated at 1 μM with the appropriate compound at 10 μM for 2 hours at 37 °C in 50 mM MES buffer at pH 7.0. Samples were injected in RapidFire 365 and MS was detected in QTOF mass spectrometer. Data were acquire and analysed with Agilent Mass Hunter software. […]
Digestion with elastase (1 µL) overnight at 37 °C followed by purification with SEP-PAK C18 columns and resuspension of the final sample in 98% MilliQ-H20 2% CH3CN 0.1% TFA gave the final sample ready to inject. […]
NanoBRET™ Nano-Glo® substrate (Promega UK) and Extracellular NanoLuc Inhibitor (Promega UK) were added at final concentrations of 10 and 20 µM, respectively. Readings were performed within 5 minutes using a PHERAstar FSX (BMG Labtech) with 450 and 610 nm filters. […] BRET ratios are expressed as milliBRET units (mBU), where 1 mBU corresponds to […]

KDM5C = KDM5C (Homo sapiens, UniProt P41229); experiment: Covalent binding by MS, KDM5C; conditions: same conditions as with KDM5B
Sequence of KDM5C (P41229 whole entry): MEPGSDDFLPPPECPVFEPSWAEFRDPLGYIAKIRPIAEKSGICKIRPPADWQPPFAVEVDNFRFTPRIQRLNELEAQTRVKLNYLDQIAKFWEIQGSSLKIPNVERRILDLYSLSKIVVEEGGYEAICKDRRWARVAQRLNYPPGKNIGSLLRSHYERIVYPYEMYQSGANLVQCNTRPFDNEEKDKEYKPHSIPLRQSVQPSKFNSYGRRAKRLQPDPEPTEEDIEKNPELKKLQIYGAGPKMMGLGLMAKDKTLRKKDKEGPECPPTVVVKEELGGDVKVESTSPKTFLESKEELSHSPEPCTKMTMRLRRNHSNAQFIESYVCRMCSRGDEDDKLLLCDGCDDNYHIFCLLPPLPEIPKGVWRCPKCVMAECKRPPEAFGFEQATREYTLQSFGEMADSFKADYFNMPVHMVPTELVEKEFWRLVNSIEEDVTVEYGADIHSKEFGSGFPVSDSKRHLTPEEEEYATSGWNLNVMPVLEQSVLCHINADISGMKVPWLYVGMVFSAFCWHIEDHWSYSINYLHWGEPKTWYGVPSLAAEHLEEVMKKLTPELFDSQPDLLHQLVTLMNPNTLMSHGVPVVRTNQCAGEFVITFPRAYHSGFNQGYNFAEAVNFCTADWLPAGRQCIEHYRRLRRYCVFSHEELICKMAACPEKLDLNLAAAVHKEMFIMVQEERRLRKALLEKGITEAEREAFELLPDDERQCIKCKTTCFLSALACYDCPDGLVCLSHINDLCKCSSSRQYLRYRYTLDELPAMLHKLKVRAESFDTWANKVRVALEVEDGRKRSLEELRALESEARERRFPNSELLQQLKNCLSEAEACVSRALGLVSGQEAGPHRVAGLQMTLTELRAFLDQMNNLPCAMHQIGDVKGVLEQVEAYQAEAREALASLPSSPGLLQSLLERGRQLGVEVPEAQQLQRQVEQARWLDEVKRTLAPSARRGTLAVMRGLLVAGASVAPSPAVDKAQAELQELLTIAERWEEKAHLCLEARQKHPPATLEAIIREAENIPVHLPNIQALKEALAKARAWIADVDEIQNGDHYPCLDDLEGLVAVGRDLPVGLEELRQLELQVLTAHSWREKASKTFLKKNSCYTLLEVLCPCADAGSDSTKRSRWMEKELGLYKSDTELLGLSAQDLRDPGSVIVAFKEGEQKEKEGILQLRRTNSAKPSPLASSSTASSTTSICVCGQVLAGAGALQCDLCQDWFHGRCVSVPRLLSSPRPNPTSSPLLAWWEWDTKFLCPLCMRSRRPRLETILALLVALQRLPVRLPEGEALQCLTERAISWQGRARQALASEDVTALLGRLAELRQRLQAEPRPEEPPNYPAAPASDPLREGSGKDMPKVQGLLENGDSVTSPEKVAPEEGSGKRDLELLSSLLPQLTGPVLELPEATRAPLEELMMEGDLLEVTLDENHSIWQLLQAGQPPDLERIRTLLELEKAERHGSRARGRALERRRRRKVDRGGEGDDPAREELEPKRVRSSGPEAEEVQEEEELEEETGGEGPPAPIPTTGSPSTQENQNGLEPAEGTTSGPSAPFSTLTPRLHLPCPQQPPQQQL

| covalent binding to KDM5C by MS (KDM5C) | Structure (SMILES) | cytotoxicity in HEK cells (HEK-293 cells) |
| --- | --- | --- |
| – | CN(CCc1cnn(-c2nccc3c(=O)[nH]cnc23)c1)Cc1cccc(NC(=O)CCl)c1 [Compound 5] | with the exception of 5, compounds were not cytotoxic |
| no covalent binding | CN(C)C/C=C/C(=O)Nc1cccc(CN(C)CCc2cnn(-c3nccc4c(=O)[nH]cnc34)c2)c1 [Compound 6] | – |
